Test [1] deals with healthy volunteers. The protocol: (§1) These studies were approved by the Human Research Committee at the Massachusetts General Hospital. All subjects provided informed consent and were American Society of Anesthesiology Physical Status I with Mallampati Class I airway anatomy. […] We administered a urine pregnancy test for each female subject to confirm that they were not pregnant. Before the start of the study, we required subjects to take nothing by mouth for at least 8 hours. […] We maintained each target effect-site concentration level for 14 min. […] Volunteers were instructed to close their eyes throughout the study to avoid eye-blink artifacts in the electroencephalogram. Volunteers were presented with auditory stimuli during the study and asked to respond by button presses to assess the level of conscious behavior. […] Verbal stimuli consisted either of the subject's name or a word randomized with an equal number of name or word stimuli at each level. The click train was delivered binaurally, with 40-Hz clicks in the left ear and 84-Hz clicks in the right ear. Subjects were instructed to press one button if they heard their name and to press the other button if they heard any other stimulus. Stimuli were recorded at a sampling rate of 44.1 kHz and were presented using Presentation software (Neurobehavioral Systems, Inc., Berkeley, Calif.) with ear-insert headphones (ER2; Etymotic Research, Elk Grove Village, Ill.) at ˜81 decibels peak sound pressure level. Button-press stimuli were recorded using a custom-built computer mouse with straps fitted to hold the first and second fingers in place over the mouse buttons. The mouse was also lightly strapped to the subject's hand using tape and an arterial line board to ensure that responses could be recorded accurately.
(§2) Electroencephalogram data segments were selected based on the behavioral response.
(§3) For each volunteer subject, TM electroencephalogram epochs were chosen that occurred within the first 2-minutes of the onset of this pattern. […] For each volunteer subject, PM electroencephalogram epochs were chosen that occurred within the first 2-minutes of the onset of this pattern.

The subject of test [2] is healthy volunteers. How it is done: as §1
(§4) An anti-aliasing filter was applied and the EEG data was downsampled to 250 Hz before analysis. EEG signals were re-montaged to a nearest-neighbor Laplacian reference, using distances along the scalp surface to weigh neighboring electrode contributions.
(§5) First, 2-minute EEG segments were selected from all subjects during the awake, eyes closed baseline. Eye closure facilitates distinguishing between normal awake, eyes-closed occipital alpha oscillations and the frontal alpha oscillations associated with anesthesia induced altered arousal.
as §2, §3
The coherence quantifies the degree of correlation between two signals at a given frequency. […] The coherence Cxy(f) function between two signals x and y is defined as:
[formula] where Sxy(f) is the cross-spectrum between the signals x(t) and y(t), Sxx(f) is the power spectrum of the signal x(t) and Syy(f) is the power spectrum of the signal y(t). Similar to the spectrum and spectrogram, the coherence can be estimated as a time-varying quantity called the coherogram.
This is another data set of the same source.

In test [3] the test system is patients undergoing light sedation with dexmedetomidine, sedation with propofol and general anesthesia with propofol. As to conditions: intraoperative frontal EEG.
The test system of test [4] is healthy volunteers. How it is done: as §1, §4, §5, §2, §3
The power spectral density, also referred to as the power spectrum or spectrum, quantifies the frequency distribution of energy or power within a signal. The spectrogram is a time-varying version of the spectrum. […] In these spectrograms, frequencies are arranged along the y-axis, and time along the x-axis, and power is indicated by color on a decibel (dB) scale. […] Spectra and spectrograms were computed using the multitaper method, implemented in the Chronux toolbox.
Group-level spectrograms were computed by taking the median across volunteers.
This is another data set of the same source.

Test [5] is described as follows: Plethysmography and blood gas experiments. As to conditions: in vivo. The source says:
For example, in accordance with one aspect of the present disclosure, methylphenidate (MPH) can be used as an inhibitor of dopamine and norepinephrine reuptake transporters and actively induces emergence from isoflurane general anesthesia. MPH can be used to restore consciousness, induce electroencephalogram changes consistent with arousal, and increase respiratory drive. The behavioral and respiratory effects induced by methylphenidate can be inhibited by droperidol, supporting the evidence that methylphenidate induces arousal by activating a dopaminergic arousal pathway.

The subject of test [6] is patients undergoing general anesthesia. In words: Intra-operative EEG during general anesthesia with sevoflurane as primary maintenance agent. It counts as in vivo, human. The protocol:
In addition, to study the relationship between EEG dynamics in context of potential neural circuit mechanisms of an anesthetic vapor, intra-operative EEG were recorded from patients undergoing general anesthesia with sevoflurane as the primary maintenance agent, which is an ether derivative commonly used to maintain GA. […] Connectivity analysis was then performed on the EEG dynamics postulated to be involved in anesthesia-induce depression in consciousness. […] These observed similarities are consistent with present understanding of how EEG features relate to anesthesia-induced depression of consciousness, and provide a framework for further experimental studies on the neural circuit mechanisms of general anesthesia.

The mark [7] stands for this setting: dexmedetomidine-induced unconsciousness.
The mark [8] stands for this setting: Propofol-induced unconsciousness (PM) epoch.
Where [9] appears, read: Propofol-induced unconsciousness (TM) epoch.
[10] abbreviates: propofol-induced unconsciousness (PM).
Where [11] appears, read: propofol-induced unconsciousness (TM).

Four compounds from US11786132B2, “Systems and methods for predicting arousal to consciousness during general anesthesia and sedation” (The General Hospital Corporation, priority 2011, dated 2023) can be followed below.

Values joined by “and” are separate entries in the source; they are usually repeats but may differ in a detail not shown here. Equal entries are not always repeated. Where two headings read alike, the source gives them in different places.

As to `Cc1cccc([C@H](C)c2cnc[nH]2)c1C` [dexmedetomidine], the “Behavioral State” value in test [1] (Dexmedetomidine-induced unconsciousness epoch) was “Sedation”. Further, in test [2] (setting [7]), the “coherence peak frequency (dex-spindle)” value is 13.4 Hz and ~13 Hz; the “peak coherence (dex-spindle)” value is reported as 0.78±0.08; the “slow oscillation coherence compared to the awake-state” value is “non-significant decrease”. Besides, the “frequency range where coherence was significantly larger than propofol-induced unconsciousness (PM)” value in test [2] (dexmedetomidine-induced unconsciousness vs propofol PM, FIG. 15B, P<0.0005, TGTC) was 12.9-15.4 Hz. For the same compound, the “frequency range of decrease in coherence on coherogram” value in test [2] (dexmedetomidine-induced unconsciousness, FIG. 12B) is reported as 0.1-1 Hz. Further, the “frequency range of significant differences in coherence vs baseline” value in test [2] (dexmedetomidine-induced unconsciousness, FIG. 12C, P<0.001, TGTC) was 2.4-18.8 Hz. For the same compound, the “frequency range of increase in coherence on coherogram” value in test [2] (dexmedetomidine-induced unconsciousness, FIGS. 12A, 12B) is 1-15 Hz. In addition, in test [3], the “coherence of 0.1-1 Hz slow oscillations compared to propofol slow oscillations” value is reported as “greater coherence” and the “coherence of 8-12 Hz oscillations compared to propofol induced oscillations” value is reported as “less coherence”. Further, the slow oscillation power in test [4] (setting [7]) is −0.4 dB. The “frequency range where EEG power was larger than propofol-induced unconsciousness (TM)” value in test [4] (dexmedetomidine-induced unconsciousness vs propofol TM, P<0.0005, TGTS) is 0.7-10 Hz. Further, the “frequency range of increased power in spectrogram compared to baseline” value in test [4] (dexmedetomidine-induced unconsciousness, FIGS. 9A, 9B) is on record as 2-15 Hz. Further, in test [4] (dexmedetomidine-induced unconsciousness, beta/gamma, P<0.001, TGTS), the “frequency range where EEG power was lower than baseline” value is listed as 21.2-40 Hz. In test [4] (dexmedetomidine-induced unconsciousness, mean±std), the “dex-spindle oscillation peak frequency (EEG power)” value is 12.9 Hz and ~13 Hz.
For the compound `COC(=O)C(c1ccccc1)C1CCCCN1` (stereo not drawn) [methylphenidate], the minute ventilation result in test [5] is reported as “increases minute ventilation”.
Take `CC(C)c1cccc(C(C)C)c1O` [propofol]: in test [1] (setting [8]), the “Behavioral State” value is “General” and the “Probability of Response to Verbal Stimuli (%) mean (±SD)” value turned out to be 0%. In test [1] (setting [9]), the “Behavioral State” value is listed as “Sedation” and the “Probability of Response to Verbal Stimuli (%) mean (±SD)” value is on record as 91.5 (15.4) %. Besides, in test [2] (setting [10]), the “alpha oscillation coherence peak frequency” value was found to be 10.8 Hz, the “alpha oscillation peak coherence” value is recorded as 0.89±0.05 and the “slow oscillation coherence compared to baseline” value is listed as “non-significant decrease”. The “frequency range of decrease in coherence on coherogram” value in test [2] (propofol-induced unconsciousness (PM), FIG. 13C) is 0.1-1 Hz. Besides, in test [2] (propofol-induced unconsciousness (PM), FIG. 13E, P<0.0003, TGTC), the “frequency range of significant increase in coherence vs baseline” value is 3.9-15.1 Hz. Also, in test [2] (propofol-induced unconsciousness (PM), listed as Propofol), the “alpha oscillation coherence peak frequency” value is ~10 Hz. Moreover, the “broad frequency range of increase in coherence on coherogram” value in test [2] (setting [11]) is listed as 1-25 Hz. Further, the “frequency range where coherence was larger than dexmedetomidine-induced unconsciousness” value in test [2] (propofol-induced unconsciousness (TM) vs dexmedetomidine, FIG. 15A, P<0.0005, TGTC) is reported as 17.3-25.9 Hz. Also, in test [2] (propofol-induced unconsciousness (TM), FIG. 13D, P<0.0003, TGTC), the “frequency ranges where oscillations were coherent vs baseline” value was 10.7-15.4 Hz and 17.3-25.9 Hz. In test [4] (PM pattern), the “propofol effect site concentrations over which the signature is stably maintained” value fell in the range of 3 to 5 µg/mL. For the same compound, in test [4] (propofol PM vs TM, FIG. 10F, P<0.0003, TGTS), the “frequency range where PM oscillations were significantly larger than TM” value is 0.1-13.4 Hz. Besides, in test [4] (setting [10]), the “alpha oscillation peak frequency (EEG power)” value was determined as 10.8 Hz, the “frontal alpha oscillation peak power” value worked out at 1.1 dB and the slow oscillation power is given as 13.2 dB. In addition, the “amplitude of slow oscillations, PM relative to TM and the baseline state” value in test [4] (propofol-induced unconsciousness (PM) vs (TM)) was “approximately 6 fold”. Further, the “amplitude of alpha oscillations, propofol PM relative to dexmedetomidine spindle oscillations” value in test [4] (propofol-induced unconsciousness (PM) vs dexmedetomidine) is reported as “approximately 3.9 fold”. In addition, the “frequency range where EEG power was significantly larger than dexmedetomidine-induced unconsciousness” value in test [4] (propofol-induced unconsciousness (PM) vs dexmedetomidine, P<0.0005, TGTS) is 0.1-40 Hz. In addition, the “frequency range where EEG power was significantly larger than baseline” value in test [4] (propofol-induced unconsciousness (PM), FIG. 10E, P<0.0003, TGTS) is on record as 0.1-40 Hz. For the same compound, in test [4] (setting [11]), the “broad-band frequency range of increased power in spectrogram” value is on record as 1-25 Hz and the slow oscillation power was −2.5 dB. Also, in test [4] (propofol-induced unconsciousness (TM) vs dexmedetomidine, P<0.0005, TGTS), the “frequency range where EEG power was larger than dexmedetomidine-induced unconsciousness” value is recorded as 14.9-40 Hz. For the same compound, in test [4] (trough max (TM) pattern), the “propofol effect site concentrations over which the signature is stably maintained” value lay within 1 to 2 µg/mL. In addition, in test [4] (trough-max pattern), the “time after loss of consciousness to which the trough-max pattern extends” value is ~10 min and the “time before loss of consciousness at which the trough-max pattern begins” value was ~20 min.
Take `FCOC(C(F)(F)F)C(F)(F)F` [sevoflurane]: in test [6], the “macroscopic EEG dynamics during GA induced unconsciousness” value is reported as “closely resemble those of propofol”.
